Key:
Assay type in all cases: biochemical
CFA synthase = target: T1, CFA synthase (Escherichia coli, UniProt P0A9H7); assay: turnover, LC-MS/MS and […]-NMR; details: fluoromethyl donor; co-substrate dOPG
T1 construct: construct only in supplement

TPMT [1] = target: T2, TPMT (Homo sapiens, UniProt P51580); assay: fluoromethyl transfer kinetics; details: fluoromethyl donor; thiol co-substrate as in Table 1
T2 construct: construct only in supplement
T2 sequence (P51580 1-245): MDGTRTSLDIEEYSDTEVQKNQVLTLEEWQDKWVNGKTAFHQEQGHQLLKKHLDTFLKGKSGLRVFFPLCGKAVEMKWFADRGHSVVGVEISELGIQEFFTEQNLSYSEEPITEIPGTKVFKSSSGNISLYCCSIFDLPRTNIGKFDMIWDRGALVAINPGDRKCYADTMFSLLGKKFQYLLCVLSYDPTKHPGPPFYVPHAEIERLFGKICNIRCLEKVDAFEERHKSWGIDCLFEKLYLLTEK

TPMT [2] = target: T2, TPMT; assay: methyl transfer kinetics; details: methyl donor; thiol co-substrate as in Table 1

T1 sequence (P0A9H7 2-382): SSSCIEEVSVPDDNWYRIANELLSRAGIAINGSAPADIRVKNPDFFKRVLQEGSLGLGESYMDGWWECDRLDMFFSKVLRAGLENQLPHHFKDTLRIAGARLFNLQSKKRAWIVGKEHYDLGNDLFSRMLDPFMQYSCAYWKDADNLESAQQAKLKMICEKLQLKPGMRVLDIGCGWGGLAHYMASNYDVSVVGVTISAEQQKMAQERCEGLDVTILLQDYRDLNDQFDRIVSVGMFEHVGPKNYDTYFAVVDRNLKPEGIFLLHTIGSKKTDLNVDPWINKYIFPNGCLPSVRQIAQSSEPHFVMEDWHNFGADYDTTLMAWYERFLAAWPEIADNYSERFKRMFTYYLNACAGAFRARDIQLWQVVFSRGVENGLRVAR

**Q.** Which “turnover, LC-MS/MS and 19F-NMR” value (CFA synthase) does the source give for `Nc1ncnc2c1ncn2[C@@H]1O[C@H](C[Te+](CF)CC[C@H](N)C(=O)O)[C@@H](O)[C@H]1O` [FMeTeSAM] here?
**A.** E. coli CFA synthase can use FMeTeSAM to catalyze cyclopropanation

**Q.** And the Km (TPMT [1])?
**A.** the Km for FMeTeSAM is nearly the same as that for SAM

**Q.** `C[S+](CC[C@H](N)C(=O)O)C[C@H]1O[C@@H](n2cnc3c(N)ncnc32)[C@H](O)[C@@H]1O` (stereo partly drawn) [SAM] was tested. Which Km (TPMT [2]) did it give?
**A.** the Km for FMeTeSAM is nearly the same as that for SAM

— publication PMC10214534, “Enzymatic Fluoromethylation Enabled by the S-Adenosylmethionine Analog Te-Adenosyl-L-(fluoromethyl)homotellurocysteine” (ACS Central Science, 2023)
